Where two headings read alike, the source gives them in different places.
Key:
[1] = Turbidity, derived count rate of scattered light; type: physicochemical; details: for Count Rate: derived count rate of scattered light (turbidity); for Log10 Count Rate: turbidity, derived count rate of scattered light, data of Figure 2D
[2] = β-sheet content by ATR-FT-IR; type: physicochemical; details: Fig. S7 panel A; β-sheet content by ATR-FT-IR
Outline: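 ATR FT-IR, diamond crystal, 64 scans, 2 cm^-1, on freeze-dried 1 mg/mL PNF; β-sheet per prior calculation. Fluorescamine CR: 3 kDa filter, DMSO redissolution, 20 min RT, ex 365/em 470 nm; values as n-fold enhancement over DMSO (set to 1).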

[3] = Zeta-potential measurement; type: physicochemical
Outline: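 Peptides diluted from DMSO stock into PBS pH 7.4 to 1 mg/mL and aged 1 d at RT, then diluted into 1 mM aqueous KCl. Zeta potential derived from electrophoretic mobility via Smoluchowski; triplicates, averaged over two independent experiments.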

[4] = Turbidity, derived count rate of scattered light; type: physicochemical; details: for Count Rate / kcps: derived count rate of scattered light at 633 nm, 173°, from zeta-potential measurement, 0.1 mg/mL in 1 mM KCl after 1 d at 1 mg/mL in PBS, turbidity / microscopic aggregation, mean of triplicate
Outline: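 Samples: 1 mg/mL in PBS pH 7.4 (from DMSO), 1 d at RT, then diluted in 1 mM KCl immediately before measurement. Triplicates, two independent runs averaged.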

[5] = system: HIV-1 infection of TZM-bl cells; assay: HIV-1 infectivity enhancement assay, β-galactosidase luminescence; type: cell-based; details: for Rel-EFC: infection relative to EF-C (QCKIKQIINMWQ = 1); for Log10 Infection Rel EFC: log10 of infection relative to EF-C; for Log Infectivity: Log10 infection relative to EF-C, TZM-bl cells, asymmetric std dev errors; for Log10 Infection Rel EF-C: HIV-1 infection of TZM-bl cells; for Log10 of Rel to EFC (Feb2021): Log10 of infection relative to EF-C, all peptides of FigS16; for Abs. Inf.: absolute infection signal, HIV-1 on TZM-bl cells, β-galactosidase luminescence; for Log10 Inf. rel. to EF-C: log10 of HIV-1 infection of TZM-bl cells relative to EF-C (EF-C = 0)
[6] = zeta-potential of peptide, source data of Figure 2C
[7] = zeta-potential of the peptide assemblies, mean, Figure 3A source data
[8] = Log10 of derived count rate of scattered light (turbidity)
[9] = turbidity, Log10 of derived count rate of scattered light, Figure 3A source data
[10] = turbidity, log10 of derived count rate of scattered light
[11] = Fig. S7 panel A (plotted against β-sheet content)
[12] = Log10 of infection rate relative to EF-C, Figure 3A source data
[13] = infection rate relative to EF-C, log10, data of Figure 2D
[14] = infection rate relative to EF-C, log10, source data of Figure 2C
[15] = zeta potential of peptide assemblies
[16] = Fig. S7 panel B (plotted against CR), rounded to two decimals
[17] = log10 of derived count rate of scattered light (turbidity)
[18] = logarithm of count rate in kcps

Substance	Count Rate [1]	Log10 Count Rate [1]	b -sheet / % [2] [%]	Zeta-Pot. [3]	Zeta-Potential / mV [3, 6] [mV]	Zeta-Potential / mV [3, 7] [mV]	Log10 Count Rate [4, 8]	Count Rate / kcps [4] [kcps]	Log10 Count Rate [4, 9]	Log10 Count Rate [4, 10]	Rel-EFC ([5]; 1.3 µM peptide)	Log10 Infection Rel EFC ([5]; 1.3 µM peptide)	Log Infectivity [5, 11]	Log10 Infection Rel EF-C [5, 12]	Log10 Infection Rel EF-C [5, 13]	Log10 Infection Rel EF-C [5, 14]	Log10 of Rel to EFC (Feb2021) [5]	Abs. Inf. [5]	Log10 Inf. rel. to EF-C [5]	Zeta-Pot. [3, 15]	also measured
QCKFKFQF	2669	3.426	40.03	12.2	13.3	12.2	3.426	2669	3.426	3.426	0,77	-0,12	-0.1152	-0.12	-0.1152	-0.1152	-0.12	20303.33333	-0.1152	–	–
CKIKIQIII	4953	3.695	36.7	16.2	16.2	16.2	3.695	4953	3.695	3.695	0,98	-0,01	-0.01045	-0.01	-0.01045	-0.01045	-0.01	22150	-0.01045	–	n-fold Infection, 1.3 µM ([5]; 1.3 µM peptide, n-fold infection): 41 n-fold
KIKIQINMW	239.6	2.38	45.5	–	17.12	19.7	2.38	240	2.38	2.38	2,16	0,33	0.3339	0.33	0.3339	0.3339	0.33	–	0.3339	19.7	–
KIKIQI	108.3	2.035	38.6	–	-2.515	-5.63	2.035	108	2.035	2.035	0,07	-1,17	-1.169	-1.17	-1.169	-1.169	–	–	-1.169	-5.63	Log Infectivity [5, 16]: -1.17
EFEFQF	405.4	2.608	44.93	–	-14.88	-24.5	2.608	405	2.608	–	0	-2,49	-2.485	-2.49	-2.485	-2.485	–	–	–	-24.5	Log10 Count Rate [4, 17]: 2.608
KIKQIINMWQ	615.5	2.789	40.68	15.37	16.2	15.37	2.789	616	2.789	2.789	0,35	-0,46	-0.4604	-0.46	-0.4604	-0.4604	-0.46	9363	-0.4604	–	Log10 Count Rate [4, 18]: 2.789; Log Infectivity [5, 16]: -0.46
KVKGVGK	51.17	1.709	8.763	-12.8	-7.825	-12.8	1.709	51	1.709	1.709	0,03	-1,59	-1.587	-1.59	-1.587	-1.587	–	286.7	-1.587	–	–
KNERIKNERI	321.9	2.508	37.95	-16	-11.61	-16	2.508	322	2.508	2.508	0,01	-1,89	-1.888	-1.89	-1.888	-1.888	–	143.3	-1.888	–	Log Infectivity [5, 16]: -1.89
PPFHPPPFHP	59.13	1.772	46.6563	-15.8	-9.582	-15.8	1.772	59	1.772	1.772	0,02	-1,75	-1.751	-1.75	-1.751	-1.751	–	263.3	-1.751	–	–
CKFKFQFNMW	4107	3.613	47.7253	–	17.67	18.4	3.613	4107	3.613	–	0,96	-0,02	-0.01766	-0.02	-0.01766	-0.01766	-0.02	–	–	18.4	Log10 Count Rate [4, 17]: 3.613
KFKFQFNMWQ	734.6	2.866	43.15	25.4	24.38	25.4	2.866	735	2.866	2.866	0,76	-0,12	-0.1164	-0.12	-0.1164	-0.1164	-0.12	20676.66667	-0.1164	–	Log10 Count Rate [4, 18]: 2.866; Log Infectivity [5, 16]: -0.12
QCKIKIQI	12426.83333	4.094	35.27	9.52	10.99	9.52	4.094	12427	4.094	4.094	0,11	-0,95	-0.9508	-0.95	-0.9508	-0.9508	-0.95	3577	-0.9508	–	–
